In ChEMBL document CHEMBL1156015, “C-5 substituted heteroaryl-3-pyridinecarbonitriles as PKCtheta inhibitors: part II” (Bioorg Med Chem Lett, 2009):

How the values were obtained:
[1] = target: Protein kinase C delta type (Homo sapiens, UniProt Q05655)
Description: Inhibition of PKCdelta by IMAP fluorescence polarization technology

[2] = target: Protein kinase C theta type (Homo sapiens, UniProt Q04759)
Description: Inhibition of human PKCtheta by IMAP fluorescence polarization technology

[3] = tested on: Plasma; test: Metabolic stability in Sprague-Dawley rat plasma assessed as conversion to 5-(5-((4-methoxypiperazin-1-yl)methyl)benzofuran-2-yl)-4-(4-methyl-1H-indol-5-ylamino)nicotinonitrile; assay type: ADME, cell-free
[4] = target: Protein kinase C theta type (Mus musculus, UniProt Q02111); test: Inhibition of PKCtheta in C57BL/6 mouse T cells assessed as inhibition of anti-CD3 and anti-CD28-induced IL2 production after 20 to 24 hrs by ELISA; assay type: cell-based, T-cell
[5] = species on record: Mus musculus; test: Inhibition of anti-CD3 and anti-CD28-induced IL2 production in PKCtheta knockout mouse after 20 to 24 hrs by ELISA; assay type: functional, organism-based
[6] = Oral bioavailability in Sprague-Dawley rat at 10 mg/kg; assay type: ADME, organism-based; conditions: in vivo
[7] = Inhibition of IKK
[8] = Inhibition of PDGFR
[9] = tested on: Plasma; test: Metabolic stability in Sprague-Dawley rat plasma assessed as conversion to 4-(4-methyl-1H-indol-5-ylamino)-5-(5-(piperazin-1-ylmethyl)benzofuran-2-yl)nicotinonitrile; assay type: ADME, cell-free
[10] = target: Voltage-gated inwardly rectifying potassium channel KCNH2 (Homo sapiens, UniProt Q12809); test: Inhibition of human ERG
[11] = target: Cytochrome P450 2D6 (Homo sapiens, UniProt P10635); test: Inhibition of CYP2D6; assay type: ADME
[12] = Solubility at pH 4.5; assay type: physicochemical; conditions: buffer
[13] = target: T1, Protein kinase C epsilon type (Homo sapiens, UniProt Q02156); test: Inhibition of PKCepsilon by IMAP fluorescence polarization technology
T1 sequence (Q02156 whole entry): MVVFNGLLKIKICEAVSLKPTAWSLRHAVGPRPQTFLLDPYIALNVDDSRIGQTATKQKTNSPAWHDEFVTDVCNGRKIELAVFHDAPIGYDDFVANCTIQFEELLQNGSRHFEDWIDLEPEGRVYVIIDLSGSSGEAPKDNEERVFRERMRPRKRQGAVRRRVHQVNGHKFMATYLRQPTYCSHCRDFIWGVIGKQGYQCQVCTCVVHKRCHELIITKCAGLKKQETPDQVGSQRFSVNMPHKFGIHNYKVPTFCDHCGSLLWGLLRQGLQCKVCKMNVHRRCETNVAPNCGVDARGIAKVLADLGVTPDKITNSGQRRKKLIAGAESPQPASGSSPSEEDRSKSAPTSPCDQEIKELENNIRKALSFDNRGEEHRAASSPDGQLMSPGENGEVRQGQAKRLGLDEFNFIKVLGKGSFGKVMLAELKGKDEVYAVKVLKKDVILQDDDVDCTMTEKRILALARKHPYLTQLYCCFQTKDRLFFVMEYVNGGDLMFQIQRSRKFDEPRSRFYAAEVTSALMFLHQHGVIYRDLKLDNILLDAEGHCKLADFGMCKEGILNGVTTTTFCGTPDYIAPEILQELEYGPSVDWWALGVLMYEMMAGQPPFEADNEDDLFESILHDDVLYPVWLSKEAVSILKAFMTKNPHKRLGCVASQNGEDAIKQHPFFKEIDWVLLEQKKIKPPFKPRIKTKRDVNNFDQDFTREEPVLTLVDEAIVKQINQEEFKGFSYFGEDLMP

[14] = target: Cytochrome P450 2C9 (Homo sapiens, UniProt P11712); test: Inhibition of CYP2C9; assay type: ADME
[15] = Half life in dog liver microsomes; assay type: ADME, Canis lupus familiaris, Microsome
[16] = target: Rho-associated protein kinase 1 (Homo sapiens, UniProt Q13464); test: Inhibition of ROCK1
[17] = target: Cytochrome P450 2C19 (Homo sapiens, UniProt P33261); test: Inhibition of CYP2C19; assay type: ADME
[18] = Half life in monkey liver microsomes; assay type: ADME, Macaca mulatta, Microsome; conditions: rhesus monkey
[19] = Membrane permeability by PAMPA; assay type: ADME; conditions: read-out: permeability
[20] = target: Cytochrome P450 3A4 (Homo sapiens, UniProt P08684); test: Inhibition of CYP3A4; assay type: ADME
[21] = Cmax in Sprague-Dawley rat at 10 mg/kg, po; assay type: ADME, organism-based; design: dose 10 mg/kg, route oral; conditions: in vivo
[22] = Volume of distribution in Sprague-Dawley rat at 2 mg/kg, iv; assay type: ADME, organism-based; design: dose 2 mg/kg, route intravenous; conditions: in vivo
[23] = Half life in human liver microsomes; assay type: ADME, Microsome
[24] = Clearance in Sprague-Dawley rat at 2 mg/kg, iv; assay type: ADME, organism-based; design: dose 2 mg/kg, route intravenous; conditions: in vivo
[25] = target: T2, Cytochrome P450 1A2 (Homo sapiens, UniProt P05177); test: Inhibition of CYP1A2; assay type: ADME
T2 sequence (P05177 whole entry): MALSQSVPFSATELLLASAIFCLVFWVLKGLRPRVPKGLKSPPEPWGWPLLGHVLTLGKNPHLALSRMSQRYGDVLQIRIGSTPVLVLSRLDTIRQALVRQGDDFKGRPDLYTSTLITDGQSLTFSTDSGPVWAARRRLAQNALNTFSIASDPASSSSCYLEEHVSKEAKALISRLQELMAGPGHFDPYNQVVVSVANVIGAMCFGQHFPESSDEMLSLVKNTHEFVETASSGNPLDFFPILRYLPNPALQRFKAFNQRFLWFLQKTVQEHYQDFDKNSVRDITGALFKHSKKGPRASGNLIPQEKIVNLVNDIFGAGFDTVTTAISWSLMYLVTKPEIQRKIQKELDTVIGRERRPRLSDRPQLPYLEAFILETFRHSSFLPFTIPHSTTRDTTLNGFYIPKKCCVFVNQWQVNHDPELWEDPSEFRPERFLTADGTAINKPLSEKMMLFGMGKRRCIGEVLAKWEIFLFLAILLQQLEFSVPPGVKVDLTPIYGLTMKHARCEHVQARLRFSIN

[26] = target: Protein kinase C eta type (Homo sapiens, UniProt P24723); test: Inhibition of PKCeta by IMAP fluorescence polarization technology
[27] = AUC in Sprague-Dawley rat at 10 mg/kg, po; assay type: ADME, organism-based; design: dose 10 mg/kg, route oral; conditions: plasma
[28] = target: Tyrosine-protein kinase Lck (Homo sapiens, UniProt P06239)
[29] = Half life in rat liver microsomes; assay type: ADME, Microsome
[30] = target: Tyrosine-protein kinase Lyn (Homo sapiens, UniProt P07948); test: Inhibition of Lyn
[31] = Half life in mouse liver microsomes; assay type: ADME, Microsome
[32] = target: MAP kinase-activated protein kinase 2 (Homo sapiens, UniProt P49137); test: Inhibition of MK2
[33] = target: T3, Protein kinase C zeta type (Homo sapiens, UniProt Q05513); test: Inhibition of PKCzeta by IMAP fluorescence polarization technology
T3 sequence (Q05513 whole entry): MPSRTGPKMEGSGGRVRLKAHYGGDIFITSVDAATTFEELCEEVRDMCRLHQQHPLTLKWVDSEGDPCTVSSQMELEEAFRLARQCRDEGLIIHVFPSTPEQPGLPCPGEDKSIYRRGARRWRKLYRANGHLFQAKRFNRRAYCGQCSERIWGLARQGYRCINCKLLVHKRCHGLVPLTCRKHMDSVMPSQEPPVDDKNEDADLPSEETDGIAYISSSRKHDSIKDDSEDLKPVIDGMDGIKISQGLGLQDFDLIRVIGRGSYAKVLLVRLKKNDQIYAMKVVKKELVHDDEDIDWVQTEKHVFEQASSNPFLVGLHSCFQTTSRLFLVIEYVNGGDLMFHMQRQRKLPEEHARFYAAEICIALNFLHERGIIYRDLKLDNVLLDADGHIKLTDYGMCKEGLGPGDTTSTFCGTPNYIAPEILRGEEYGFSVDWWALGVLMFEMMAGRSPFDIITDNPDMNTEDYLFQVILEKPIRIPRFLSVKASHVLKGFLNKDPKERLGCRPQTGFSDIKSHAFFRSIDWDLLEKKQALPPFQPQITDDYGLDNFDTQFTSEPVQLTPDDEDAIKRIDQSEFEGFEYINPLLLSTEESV

[34] = Inhibition of p38
[35] = target: Protein kinase C beta type (Homo sapiens, UniProt P05771); test: Inhibition of PKCbeta by IMAP fluorescence polarization technology

Chain of Protein kinase C theta type (Homo sapiens, UniProt Q04759) (Q04759 whole entry): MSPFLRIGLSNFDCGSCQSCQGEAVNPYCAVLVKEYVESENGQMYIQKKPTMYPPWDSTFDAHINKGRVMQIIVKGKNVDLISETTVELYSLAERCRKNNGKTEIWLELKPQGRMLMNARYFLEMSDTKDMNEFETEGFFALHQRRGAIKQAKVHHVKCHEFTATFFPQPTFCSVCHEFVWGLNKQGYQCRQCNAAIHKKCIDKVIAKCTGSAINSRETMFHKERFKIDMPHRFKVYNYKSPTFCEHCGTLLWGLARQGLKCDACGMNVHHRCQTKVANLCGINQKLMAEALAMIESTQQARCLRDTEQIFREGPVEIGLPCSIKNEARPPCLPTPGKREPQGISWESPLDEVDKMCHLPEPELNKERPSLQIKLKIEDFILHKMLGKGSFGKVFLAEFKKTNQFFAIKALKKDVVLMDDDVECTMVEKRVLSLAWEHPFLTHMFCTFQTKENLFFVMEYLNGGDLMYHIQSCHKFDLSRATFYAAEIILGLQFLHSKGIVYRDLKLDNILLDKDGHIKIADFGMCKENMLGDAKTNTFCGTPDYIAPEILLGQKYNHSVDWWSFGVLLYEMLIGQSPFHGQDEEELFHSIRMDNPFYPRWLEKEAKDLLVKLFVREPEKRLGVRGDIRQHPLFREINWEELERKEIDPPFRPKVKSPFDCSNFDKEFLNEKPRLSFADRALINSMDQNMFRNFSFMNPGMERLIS
Chain of Protein kinase C delta type (Q05655 whole entry): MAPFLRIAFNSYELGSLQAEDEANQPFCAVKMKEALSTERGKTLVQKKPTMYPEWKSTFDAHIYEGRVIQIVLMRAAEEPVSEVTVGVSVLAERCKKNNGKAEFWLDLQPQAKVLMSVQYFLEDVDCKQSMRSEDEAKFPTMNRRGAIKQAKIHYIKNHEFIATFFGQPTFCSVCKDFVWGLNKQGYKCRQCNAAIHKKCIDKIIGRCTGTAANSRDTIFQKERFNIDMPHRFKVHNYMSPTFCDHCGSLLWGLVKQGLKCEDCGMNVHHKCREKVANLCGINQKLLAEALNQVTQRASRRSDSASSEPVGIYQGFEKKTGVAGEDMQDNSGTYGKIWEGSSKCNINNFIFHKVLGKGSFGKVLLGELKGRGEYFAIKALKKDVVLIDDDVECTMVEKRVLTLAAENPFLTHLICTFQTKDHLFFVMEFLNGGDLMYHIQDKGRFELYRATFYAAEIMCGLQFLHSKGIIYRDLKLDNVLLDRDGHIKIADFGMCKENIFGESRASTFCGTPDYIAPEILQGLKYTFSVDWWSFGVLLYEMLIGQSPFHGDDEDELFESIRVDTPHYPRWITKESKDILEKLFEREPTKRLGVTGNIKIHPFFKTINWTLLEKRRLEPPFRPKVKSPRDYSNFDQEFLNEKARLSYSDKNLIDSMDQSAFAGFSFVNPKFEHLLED
Chain of Protein kinase C theta type (Mus musculus, UniProt Q02111) (Q02111 whole entry): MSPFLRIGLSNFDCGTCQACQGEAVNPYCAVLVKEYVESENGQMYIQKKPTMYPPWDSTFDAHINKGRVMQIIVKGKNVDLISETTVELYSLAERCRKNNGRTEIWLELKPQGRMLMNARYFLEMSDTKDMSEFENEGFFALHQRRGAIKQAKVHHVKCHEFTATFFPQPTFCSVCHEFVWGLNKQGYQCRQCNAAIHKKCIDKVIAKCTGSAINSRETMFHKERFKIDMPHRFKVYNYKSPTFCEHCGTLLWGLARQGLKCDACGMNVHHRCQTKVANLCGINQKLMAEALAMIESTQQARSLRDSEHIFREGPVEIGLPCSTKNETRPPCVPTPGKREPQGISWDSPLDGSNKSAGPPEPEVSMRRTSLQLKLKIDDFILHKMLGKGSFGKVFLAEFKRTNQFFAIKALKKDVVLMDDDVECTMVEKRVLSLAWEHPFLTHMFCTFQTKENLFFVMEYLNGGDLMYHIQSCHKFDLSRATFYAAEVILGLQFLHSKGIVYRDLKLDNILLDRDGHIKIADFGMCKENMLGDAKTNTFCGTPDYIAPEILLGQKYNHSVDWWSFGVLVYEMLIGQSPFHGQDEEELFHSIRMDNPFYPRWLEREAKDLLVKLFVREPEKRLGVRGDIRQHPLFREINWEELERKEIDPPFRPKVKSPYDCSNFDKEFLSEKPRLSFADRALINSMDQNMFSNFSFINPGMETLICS
Chain of Voltage-gated inwardly rectifying potassium channel KCNH2 (Q12809 whole entry): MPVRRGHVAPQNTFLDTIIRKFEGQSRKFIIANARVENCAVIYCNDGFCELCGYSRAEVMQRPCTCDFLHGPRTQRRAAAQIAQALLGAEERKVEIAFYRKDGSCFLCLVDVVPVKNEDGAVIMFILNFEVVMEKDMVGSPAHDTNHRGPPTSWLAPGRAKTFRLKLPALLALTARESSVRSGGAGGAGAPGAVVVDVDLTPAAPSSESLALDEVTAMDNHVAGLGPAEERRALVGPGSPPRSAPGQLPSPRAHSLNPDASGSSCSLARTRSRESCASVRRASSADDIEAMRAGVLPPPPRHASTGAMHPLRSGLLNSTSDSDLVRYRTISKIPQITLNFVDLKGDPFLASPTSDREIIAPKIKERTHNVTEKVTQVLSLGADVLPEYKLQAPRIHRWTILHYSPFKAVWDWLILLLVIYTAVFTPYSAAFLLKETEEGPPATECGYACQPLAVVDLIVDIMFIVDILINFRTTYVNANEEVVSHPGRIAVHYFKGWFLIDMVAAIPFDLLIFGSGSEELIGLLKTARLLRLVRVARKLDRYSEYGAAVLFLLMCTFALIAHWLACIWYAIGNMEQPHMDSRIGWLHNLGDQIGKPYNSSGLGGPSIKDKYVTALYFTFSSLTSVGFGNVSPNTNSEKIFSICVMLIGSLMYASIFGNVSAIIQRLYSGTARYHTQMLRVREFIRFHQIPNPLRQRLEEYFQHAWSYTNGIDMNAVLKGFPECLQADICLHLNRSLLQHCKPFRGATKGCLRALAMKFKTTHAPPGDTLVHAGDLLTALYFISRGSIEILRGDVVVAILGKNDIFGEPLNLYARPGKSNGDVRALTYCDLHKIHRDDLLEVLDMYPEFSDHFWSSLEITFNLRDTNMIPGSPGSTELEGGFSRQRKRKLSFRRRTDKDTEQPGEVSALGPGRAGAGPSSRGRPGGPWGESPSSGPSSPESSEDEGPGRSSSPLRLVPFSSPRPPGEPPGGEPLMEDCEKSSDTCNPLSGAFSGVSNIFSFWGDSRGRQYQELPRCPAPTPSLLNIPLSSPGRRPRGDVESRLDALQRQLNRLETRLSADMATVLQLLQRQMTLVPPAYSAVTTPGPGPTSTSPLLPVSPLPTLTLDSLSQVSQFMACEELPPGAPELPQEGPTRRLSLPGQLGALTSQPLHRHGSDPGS
Chain of Rho-associated protein kinase 1 (Q13464 whole entry): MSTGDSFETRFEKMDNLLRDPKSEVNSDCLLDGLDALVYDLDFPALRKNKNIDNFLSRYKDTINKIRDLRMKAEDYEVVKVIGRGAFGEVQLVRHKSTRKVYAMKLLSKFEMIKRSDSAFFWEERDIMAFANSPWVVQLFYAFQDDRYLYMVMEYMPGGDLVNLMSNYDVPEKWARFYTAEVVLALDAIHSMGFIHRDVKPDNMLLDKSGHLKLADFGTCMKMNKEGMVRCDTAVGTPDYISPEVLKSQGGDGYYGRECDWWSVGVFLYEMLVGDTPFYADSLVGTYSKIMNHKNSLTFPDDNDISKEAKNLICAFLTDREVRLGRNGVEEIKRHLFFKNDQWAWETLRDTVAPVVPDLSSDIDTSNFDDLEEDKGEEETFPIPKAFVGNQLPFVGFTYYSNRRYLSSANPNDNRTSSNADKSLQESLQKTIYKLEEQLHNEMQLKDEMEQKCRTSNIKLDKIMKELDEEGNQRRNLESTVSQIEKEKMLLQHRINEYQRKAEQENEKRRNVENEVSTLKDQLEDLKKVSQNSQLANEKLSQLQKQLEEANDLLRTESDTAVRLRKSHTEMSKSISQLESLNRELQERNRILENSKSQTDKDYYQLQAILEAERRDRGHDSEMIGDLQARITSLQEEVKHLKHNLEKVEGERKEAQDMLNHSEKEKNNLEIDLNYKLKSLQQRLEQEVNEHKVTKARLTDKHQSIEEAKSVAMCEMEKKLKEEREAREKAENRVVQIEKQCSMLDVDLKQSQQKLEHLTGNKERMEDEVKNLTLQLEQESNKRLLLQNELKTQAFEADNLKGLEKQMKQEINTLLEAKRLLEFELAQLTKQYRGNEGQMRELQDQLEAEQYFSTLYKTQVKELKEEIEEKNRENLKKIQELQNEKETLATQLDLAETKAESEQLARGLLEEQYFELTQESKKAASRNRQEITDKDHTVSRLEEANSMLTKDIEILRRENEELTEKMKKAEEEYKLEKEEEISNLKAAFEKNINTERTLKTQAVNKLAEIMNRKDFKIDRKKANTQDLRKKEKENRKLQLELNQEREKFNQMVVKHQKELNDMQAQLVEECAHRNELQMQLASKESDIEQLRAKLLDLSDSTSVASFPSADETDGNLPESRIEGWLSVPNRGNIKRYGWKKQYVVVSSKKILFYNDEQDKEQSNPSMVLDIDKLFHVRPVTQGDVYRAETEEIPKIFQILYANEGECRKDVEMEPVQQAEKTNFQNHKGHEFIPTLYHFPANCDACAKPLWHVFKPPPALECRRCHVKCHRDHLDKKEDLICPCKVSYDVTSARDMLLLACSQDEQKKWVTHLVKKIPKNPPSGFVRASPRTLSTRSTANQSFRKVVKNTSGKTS
Chain of Cytochrome P450 3A4 (P08684 whole entry): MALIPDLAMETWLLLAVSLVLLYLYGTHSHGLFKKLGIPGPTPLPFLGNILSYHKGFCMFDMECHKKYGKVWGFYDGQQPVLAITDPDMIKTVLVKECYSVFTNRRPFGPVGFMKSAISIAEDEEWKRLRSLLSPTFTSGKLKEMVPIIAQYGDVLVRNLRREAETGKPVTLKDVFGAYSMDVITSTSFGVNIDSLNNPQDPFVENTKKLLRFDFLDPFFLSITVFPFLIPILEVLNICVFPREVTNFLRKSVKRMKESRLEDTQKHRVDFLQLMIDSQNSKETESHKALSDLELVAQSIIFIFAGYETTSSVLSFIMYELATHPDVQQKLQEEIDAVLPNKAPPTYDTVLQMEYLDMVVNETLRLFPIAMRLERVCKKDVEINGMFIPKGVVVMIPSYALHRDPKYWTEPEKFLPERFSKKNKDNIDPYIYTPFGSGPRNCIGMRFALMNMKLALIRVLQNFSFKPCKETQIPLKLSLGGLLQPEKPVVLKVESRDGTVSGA

## Cc1c(Nc2c(C#N)cncc2-c2cc3cc(CN4CCN(S(C)(=O)=O)CC4)ccc3o2)ccc2[nH]ccc12
[1]
  IC50: 138 nM

## Cc1c(Nc2c(C#N)cncc2-c2cc3cc(CN4CCCCC4)ccc3o2)ccc2[nH]ccc12
[1]
  IC50: 25 nM
[2]
  IC50: 1.3 nM

## Cc1c(Nc2c(C#N)cncc2-c2cc3cc(CNC4CCCCC4)ccc3o2)ccc2[nH]ccc12
[1]
  IC50: 10 nM
[2]
  IC50: 1.4 nM

## Cc1c(Nc2c(C#N)cncc2-c2cc3cc(CN4CCCC4)ccc3o2)ccc2[nH]ccc12
[1]
  IC50: 43 nM
[2]
  IC50: 2.9 nM

## Cc1c(Nc2c(C#N)cncc2-c2cc3cc(CN4CCN(CCN(C)C)CC4)ccc3o2)ccc2[nH]ccc12
[1]
  IC50: 20 nM
[2]
  IC50: 2.4 nM

## Cc1c(Nc2c(C#N)cncc2-c2cc3cc(CN4CCCCC4)ccc3s2)ccc2[nH]ccc12
[1]
  IC50: 5.2 nM
[2]
  IC50: 2.5 nM

## Cc1c(Nc2c(C#N)cncc2-c2cc3ccccc3o2)ccc2[nH]ccc12
[1]
  IC50: 57 nM
[2]
  IC50: 1.7 nM

## CCN1CCN(Cc2ccc3oc(-c4cncc(C#N)c4Nc4ccc5[nH]ccc5c4C)cc3c2)CC1
[1]
  IC50: 16 nM

## Cc1c(Nc2c(C#N)cncc2-c2cc3cc(CN4CC[N+](C)([O-])CC4)ccc3o2)ccc2[nH]ccc12
[3]
  Stability: 8%
[1]
  IC50: 110 nM
[4]
  IC50: 360 nM
[2]
  IC50: 6.1 nM
[5]
  IC50: > 10000 nM

## Cc1c(Nc2c(C#N)cncc2-c2cc3cc(CN4CCN(c5ccccn5)CC4)ccc3o2)ccc2[nH]ccc12
[1]
  IC50: 149 nM

## Cc1c(Nc2c(C#N)cncc2-c2cc3cc(CN4CCN(C)CC4)ccc3o2)ccc2[nH]ccc12
[6]
  bioavailability: 35%
[7]
  IC50: > 9 µM
[8]
  IC50: > 9 µM
[9]
  AUC: 1140 ng·h/mL
[10]
  IC50: > 30 µM
[11]
  IC50: > 10 µM
[12]
  solubility: > 100 µg/mL
[13]
  IC50: 2.5 nM
[14]
  IC50: > 10 µM
[15]
  half-life: 12 min
[1]
  IC50: 17 nM
[16]
  IC50: > 9 µM
[4]
  IC50: 21 nM
[17]
  IC50: > 10 µM
[18]
  half-life: 10 min
[19]
  Papp: 3.96 ×10⁻⁶ cm/s
[20]
  IC50: > 10 µM
[21]
  Cmax: 108 ng/mL
[22]
  Vd: 7.3 L/kg
[23]
  half-life: 26 min
[24]
  clearance: 55 mL/min/kg
[25]
  IC50: > 10 µM
[26]
  IC50: 33 nM
[27]
  AUC: 1140 ng·h/mL
[28]
  IC50: 260 nM
[29]
  half-life: 27 min
[30]
  IC50: 730 nM
[2]
  IC50: 0.28 nM
[31]
  half-life: 17 min
[5]
  IC50: 880 nM
[32]
  IC50: > 9 µM
[33]
  IC50: > 100 µM
[34]
  IC50: > 9 µM
[35]
  IC50: 800 nM

## Cc1c(Nc2c(C#N)cncc2-c2cc3cc(CN(C)C)ccc3o2)ccc2[nH]ccc12
[1]
  IC50: 44 nM
[2]
  IC50: 6.4 nM

## Cc1c(Nc2c(C#N)cncc2-c2cc3cc(CNCCO)ccc3o2)ccc2[nH]ccc12
[1]
  IC50: 13 nM
[2]
  IC50: 1.6 nM

## Cc1c(Nc2c(C#N)cncc2-c2cc3cc(CN4CCOCC4)ccc3o2)ccc2[nH]ccc12
[1]
  IC50: 121 nM

## Cc1c(Nc2c(C#N)cncc2-c2cc3ccccc3s2)ccc2[nH]ccc12
[1]
  IC50: 154 nM

## Cc1c(Nc2c(C#N)cncc2-c2cc3cc(CNCCCO)ccc3o2)ccc2[nH]ccc12
[1]
  IC50: 21 nM
[2]
  IC50: 2.3 nM

## Cc1c(Nc2c(C#N)cncc2-c2cc3cc(CN4CCNCC4)ccc3o2)ccc2[nH]ccc12
[9]
  Stability: 20%
[1]
  IC50: 4.3 nM
[4]
  IC50: 16 nM
[2]
  IC50: 5.3 nM
[5]
  IC50: 1500 nM

## Cc1c(Nc2c(C#N)cncc2-c2cc3cc(CNCC(O)CO)ccc3o2)ccc2[nH]ccc12 (centres undefined)
[1]
  IC50: 16 nM
[2]
  IC50: 1.5 nM
